These results are taken from US11384063B2, “Modulators of estrogen receptor proteolysis and associated methods of use” (Arvinas Operations, Inc., priority 2017, dated 2022).

The term DC50 denotes the concentration at which degradation of the target reaches its halfway point. Lower therefore signals degradation at low concentration. As usually defined, the Dmax is the greatest extent of degradation seen. High values mean deep degradation, low ones shallow degradation. One may read the IC50 as the concentration that inhibits the measured activity by half.

For assay [1], the target named is T1, ERα (Homo sapiens, UniProt P03372).
T1 sequence (P03372 1-595): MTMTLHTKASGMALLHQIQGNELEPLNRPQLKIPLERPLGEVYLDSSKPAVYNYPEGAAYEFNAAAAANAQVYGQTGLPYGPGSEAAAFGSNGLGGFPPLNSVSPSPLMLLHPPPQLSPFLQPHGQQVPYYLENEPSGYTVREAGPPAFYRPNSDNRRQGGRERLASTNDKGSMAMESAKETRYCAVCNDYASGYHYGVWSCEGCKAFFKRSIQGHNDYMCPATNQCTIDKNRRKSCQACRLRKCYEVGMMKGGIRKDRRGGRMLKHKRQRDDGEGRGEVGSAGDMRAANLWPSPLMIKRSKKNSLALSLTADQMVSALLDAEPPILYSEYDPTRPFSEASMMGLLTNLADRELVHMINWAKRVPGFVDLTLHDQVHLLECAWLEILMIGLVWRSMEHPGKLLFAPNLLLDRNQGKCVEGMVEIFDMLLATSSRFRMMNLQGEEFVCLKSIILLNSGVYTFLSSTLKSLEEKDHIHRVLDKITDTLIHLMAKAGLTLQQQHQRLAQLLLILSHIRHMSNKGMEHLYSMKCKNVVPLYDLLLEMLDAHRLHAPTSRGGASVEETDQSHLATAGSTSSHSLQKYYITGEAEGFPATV
Kind of assay: Estrogen receptor-alpha (ERα) degradation assay in MCF-7 cells using western blot. In kind it is cell-based. Also on record: assessed for their activity in degrading ERα in MCF-7 cells via western blot; endogenous in cells; host or cells: MCF7 cells. Particulars: ER-alpha degradation, MCF7 cells, 3 days of incubation. A digest of the protocol:
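MCF7 cells in DMEM/F12 with 10% FBS were treated with compounds at 0.3–100 nM (7-point) or 1.2–100 nM (5-point, 72 h), 0.01% DMSO final. Lysates (2 μg protein) were immunoblotted for ERα with tubulin as loading control, ECL detection.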
On the technique in general: Immunoblotting shows a protein as a band on a membrane.

The target of assay [2] is T1, ERα. Kind of assay: ERE luciferase reporter gene assay in T47D-KBluc cells (target engagement). In kind it is cell-based. Further details: T47D human breast cancer cells stably transfected with estrogen responsive element/promoter/luciferase reporter gene; host or cells: T47D-KBluc cells. Conditions: 10% FBS, 24 hours, Table 2 VHL centric PROTACs, read-out: IC50. In short, it runs like this: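 T47D-KBluc breast cancer cells, which carry a stable ERE-luciferase reporter, were grown in RPMI with 10% FBS (about 10 pM estrogen) and exposed to PROTACs for 24 h. The 12-point, 3-fold series ran from 300 nM to 2 pM. Luciferase was read after lysis, and IC50 was fitted from duplicates.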
On the technique in general: Reporter assays use an easily measured gene product as a stand-in for the process of interest.

With `Cc1ncsc1-c1ccc(CNC(=O)[C@@H]2C[C@@H](O)CN2C(=O)[C@@H](NC(=O)CN2CCN(CCOCCOc3ccc(Oc4c(-c5ccc(Br)cc5)sc5cc(O)ccc45)cc3)CC2)C(C)(C)C)cc1` [Compound 158, (2S,4R)-1-[(2S)-2-[2-(4-[2-[2-(4-[[2-(4-bromophenyl)-6-hydroxy-1-benzothiophen-3-yl]oxy]phenoxy)ethoxy]ethyl]piperazin-1-yl)acetamido]-3,3-dimethylbutanoyl]-4-hydroxy-N-[[4-(4-methyl-1,3-thiazol-5-yl)phenyl]methyl]pyrrolidine-2-carboxamide], in assay [1], the DC50 is 0.01 to 0.1 µM and the Dmax is greater than 75%. Moreover, in assay [2], the IC50 amounted to 0.0137 µM.

As for `Cc1ncsc1-c1ccc(CNC(=O)[C@@H]2C[C@@H](O)CN2C(=O)[C@@H](NC(=O)CN2CCC(N3CC(OCCOc4ccc(Oc5c(-c6ccc(Br)cc6)sc6cc(O)ccc56)cc4)C3)CC2)C(C)(C)C)cc1` [Compound 160, (2S,4R)-1-[(2S)-2-[2-(4-[3-[2-(4-[[2-(4-bromophenyl)-6-hydroxy-1-benzothiophen-3-yl]oxy]phenoxy)ethoxy]azetidin-1-yl]piperidin-1-yl)acetamido]-3,3-dimethylbutanoyl]-4-hydroxy-N-[[4-(4-methyl-1,3-thiazol-5-yl)phenyl]methyl]pyrrolidine-2-carboxamide], in assay [1], the DC50 was in the range of 0.001 to 0.01 µM and the Dmax is greater than 75%. Moreover, the IC50 in assay [2] was determined as 0.0063 µM.
